Measurements from BindingDB's records for doi:10.1080/14756360701546595 (University of Zimbabwe, 2008).

molecular target: T1, Glutathione S-transferase E2 (Anopheles gambiae, UniProt Q9GPL8); experiment: GST Inhibition Assay; conditions: pH 6.5; 30 °C
T1 sequence (Q9GPL8 whole entry): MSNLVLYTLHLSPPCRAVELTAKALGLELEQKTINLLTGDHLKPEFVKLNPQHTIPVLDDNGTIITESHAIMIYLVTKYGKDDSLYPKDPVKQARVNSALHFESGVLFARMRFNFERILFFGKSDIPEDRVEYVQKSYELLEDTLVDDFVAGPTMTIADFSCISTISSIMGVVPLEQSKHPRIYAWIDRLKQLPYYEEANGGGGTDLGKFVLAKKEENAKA
From the text: A range of natural product were screened for inhibition of AgGSTE2. GST activity was monitored by measuring absorbance at 340 nm with time, using a SpectraMax 340 microplate spectrophotometer equipped with a kinetics mode from Molecular Devices, Sunnyvale, California, USA.

Q: How did the IC50 turn out when C=Cc1c(OC=O)cc(O)c2c1OC(c1ccc(O)c(O)c1)C(O)C2 (stereo not given) [TRAL-1] was run?
A: 1.5 µM

Q: For CC(C)=CCCC1(C)C(CC=C(C)C)CC2(CC=C(C)C)C(=O)C(C(=O)c3ccc(O)c(O)c3)C(=O)C1(CC=C(C)C)C2=O (stereo not given) [GGI], which IC50 is on record?
A: 4.8 µM

Q: C=C(CC)C(=O)c1ccc(OCC(=O)O)c(Cl)c1Cl [[2,3-dichloro-4-(2-methylidenebutanoyl)phenoxy]acetic acid] was tested. Which IC50 did it give?
A: 1.4 µM

Q: How did the IC50 turn out when COc1cc(O)c(-c2c(C)cc(O)c3c2Cc2cccc(O)c2C3=O)c(O)c1C(C)=O [Name not given] was run?
A: 3.5 µM

Q: How did the IC50 turn out when O=Cc1occ2c(O)c3c(O)ccc(O)c3c(O)c12 [MR-13/4] was run?
A: 4.3 µM
